# Experimental data published in patent US20130079408A1, “PERACID AND 2-HYDROXY ORGANIC ACID COMPOSITIONS AND METHODS FOR TREATING ITEMS” (Fresh Express Incorporated, priority 2009, published 2013).
# Legend:
# E. coli K12 = experiment: Attached cells challenge test on produce leaves (Example 1); assay type: cell-based; conditions: PAA 0 ppm, 45 F, 45 s
# [1] = system: Pseudomonas aeruginosa (ATCC 9027); experiment: Non-food surface coupon test (Example 6); assay type: cell-based; conditions: 90 sec residence time
# Listeria innocua = experiment: Attached cells challenge test on produce leaves (Example 1); assay type: cell-based; conditions: PAA 0 ppm, 45 F, 45 s
# [2] = system: Lactobacillus plantarum 14917; experiment: Suspended cells challenge test at 20 s residence time, no surfactant (Example 2); assay type: cell-based; conditions: Peroxyacetic acid 0 ppm
# [3] = system: Listeria innocua ATCC 33090; experiment: as above; assay type: cell-based; conditions: Peroxyacetic acid 0 ppm
# [4] = 40 C; cited from earlier work
# [5] = system: indigenous microorganisms (Aerobic Plate Counts); assay type: cell-based
compound,measurement,setting,value
"CC(O)C(=O)O (centres unmarked) [Lactic acid, lactic acid]","Attached E. Coli, Romaine",E. coli K12; LA 0.6%,0.24
same,"Attached E. Coli, Spinach",E. coli K12; LA 0.6%,0.09
same,"Attached E. Coli, Romaine",E. coli K12; LA 0.9%,0.37
same,"Attached E. Coli, Spinach",E. coli K12; LA 0.9%,0.42
same,"Attached E. Coli, Romaine",E. coli K12; LA 1.2%,1.28
same,"Attached E. Coli, Spinach",E. coli K12; LA 1.2%,0.81
same,"Log reductions, attached on glass coupons","[1]; PA 0 ppm, LA 1,250 ppm",0.4
same,"Log reductions, attached on stainless steel coupons","[1]; PA 0 ppm, LA 1,250 ppm",1.6
same,"Log reductions, attached on glass coupons","[1]; PA 0 ppm, LA 2,500 ppm",1.7
same,"Log reductions, attached on plastic coupons","[1]; PA 0 ppm, LA 2,500 ppm",0.6
same,"Log reductions, attached on stainless steel coupons","[1]; PA 0 ppm, LA 2,500 ppm",1.9
same,"Log reductions, attached on wood coupons","[1]; PA 0 ppm, LA 2,500 ppm",1.4
same,"Log reductions, attached on plastic coupons","[1]; PA 0 ppm, LA 5,000 ppm",1.2
same,"Log reductions, attached on wood coupons","[1]; PA 0 ppm, LA 7,500 ppm",3.6
same,"Attached Listeria, Romaine",Listeria innocua; LA 0.6%,1.1
same,"Attached Listeria, Spinach",Listeria innocua; LA 0.6%,0.1
same,"Attached Listeria, Romaine",Listeria innocua; LA 0.9%,1.4
same,"Attached Listeria, Spinach",Listeria innocua; LA 0.9%,0.2
same,"Attached Listeria, Romaine",Listeria innocua; LA 1.2%,1.5
same,"Attached Listeria, Spinach",Listeria innocua; LA 1.2%,0.2
same,log reduction of suspended Lactobacillus plantarum cells,[2]; Lactic Acid 2000 ppm,0.00
same,log reduction of suspended Lactobacillus plantarum cells,[2]; Lactic Acid 2500 ppm,0.02
same,log reduction of suspended Lactobacillus plantarum cells,[2]; Lactic Acid 3000 ppm,0.01
same,log reduction of suspended Listeria innocua cells,[3]; Lactic Acid 2000 ppm,0.08
same,log reduction of suspended Listeria innocua cells,[3]; Lactic Acid 2500 ppm,0.19
same,log reduction of suspended Listeria innocua cells,[3]; Lactic Acid 3000 ppm,0.05
"CC(=O)OO [Peroxyacetic acid, peroxyacetic acid]","Log reductions, attached on glass coupons","[1]; PA 60 ppm, LA 0 ppm",0.2
same,"Log reductions, attached on plastic coupons","[1]; PA 60 ppm, LA 0 ppm",1.2
same,"Log reductions, attached on stainless steel coupons","[1]; PA 60 ppm, LA 0 ppm",1.5
same,"Log reductions, attached on glass coupons","[1]; PA 80 ppm, LA 0 ppm",0.0
same,"Log reductions, attached on plastic coupons","[1]; PA 80 ppm, LA 0 ppm",0.9
same,"Log reductions, attached on stainless steel coupons","[1]; PA 100 ppm, LA 0 ppm",1.4
same,"Log reductions, attached on wood coupons","[1]; PA 100 ppm, LA 0 ppm",1.0
same,"Log reductions, attached on wood coupons","[1]; PA 140 ppm, LA 0 ppm",0.8
same,apparent equilibrium constant Kap,[4],about 2.21
same,Aerobic Plate Counts Log Reduction,[5],0.7 Log cfu/g
same,Aerobic Plate Counts after wash,[5],2.7 Log cfu/g
same,log10 reduction of indigenous microorganism on the Romaine leaf,[5],0.7 log10
